Laboratory results taken from publication PMC8050276, “Estradiol analogs attenuate autophagy, cell migration and invasion by direct and selective inhibition of TRPML1, independent of estrogen receptors” (Scientific Reports, 2021).
Where “and” joins values, the source holds several entries; their conditions need not be identical. Equal values may be shown once. Read-outs that look alike come from different tables or passages of the source.

Legend:
hTRPML1∆NC-YFP [1] = target: hTRPML1∆NC-YFP (Homo sapiens, UniProt Q9GZU1); assay type: cell-based; conditions: for inhibitory effect on TRPML1: 12.5 µM compound, 5 µM ML-SA1, Fig. 1f; for TRPML1-inhibitory activity, SAR summary: random screening or consecutive experiments
Chain of hTRPML1∆NC-YFP (Homo sapiens, UniProt Q9GZU1) (Q9GZU1 whole entry): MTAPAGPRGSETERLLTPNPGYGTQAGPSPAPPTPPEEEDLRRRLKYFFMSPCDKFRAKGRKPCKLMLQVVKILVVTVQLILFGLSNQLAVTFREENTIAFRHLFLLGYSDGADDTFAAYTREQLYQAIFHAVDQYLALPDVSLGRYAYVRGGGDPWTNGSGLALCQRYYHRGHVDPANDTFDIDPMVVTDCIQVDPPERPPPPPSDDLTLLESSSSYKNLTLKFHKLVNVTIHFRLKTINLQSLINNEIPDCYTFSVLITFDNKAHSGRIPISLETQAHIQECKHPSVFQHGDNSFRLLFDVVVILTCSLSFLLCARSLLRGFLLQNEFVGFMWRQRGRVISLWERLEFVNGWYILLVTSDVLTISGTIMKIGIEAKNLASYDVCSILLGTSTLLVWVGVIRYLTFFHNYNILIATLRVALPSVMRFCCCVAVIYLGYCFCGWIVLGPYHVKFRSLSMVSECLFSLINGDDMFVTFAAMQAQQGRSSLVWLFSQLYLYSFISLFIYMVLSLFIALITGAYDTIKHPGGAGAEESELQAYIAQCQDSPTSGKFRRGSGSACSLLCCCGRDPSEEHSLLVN
Description: (§1) To identify inhibitors of TRPML1 and TRPML3, the Spectrum Collection compound library (MS Discoveries; 2000 compounds) and additional 430 bioactive compounds were screened. To this end, fluorometric Ca^2+ influx assays were performed by using the calcium dye Fluo-4/AM (Invitrogen, Thermo Fisher Scientific, Waltham, MA, USA) and a custom-made fluorescence imaging plate reader built into a robotic liquid handling station (Freedom Evo 150, Tecan, Männedorf, Switzerland). […] Screening compounds dissolved in DMSO (10 mM) were prediluted in 150 mM NaCl, 20 mM HEPES, pH 7.4, to a concentration of 200 µM. For primary screens, HEK293 stably expressing plasma membrane-targeted TRPML1 or TRPML3 were trypsinized and resuspended in cell culture medium supplemented with 4 µM Fluo-4/AM. After incubation at 37 °C for 30 min, the cell suspension was briefly centrifuged resuspended in HBS, and dispensed into black pigmented, clear-bottom 384-well microwell plates (Greiner μClear, Frickenhausen, Germany). Plates were placed into the FLIPR and fluorescence signals (excitation 470 nm, emission 515 nm) were recorded with a Zyla 5.5 camera (Andor, Belfast, UK) and the μManager software like previously described. In a first video, compound libraries were successively added to the cells with the Tecan 96-tip multichannel arm to a final concentration of 20 µM to map unspecific effects like autofluorescence or toxicity. In a second step the agonist ML-SA1 was pipetted in each well and fluorescence signals were recorded for 10 min. Analyses were done by calculating fluorescence intensities for each well and background areas with ImageJ (National Institutes of Health, Bethesda, MD, USA). Finally, the background was subtracted and the fluorescence intensities were normalized to initial intensities (F/F0). Concentration response curves were generated by the same procedure but compounds were manually prediluted in 96-well plates containing HBS, now supplemented with 0.1% bovine serum albumin. Here data was fitted to a four-parameter Hill equation to obtain Imin, Imax, IC50), and the Hill coefficient n.

hTRPML3-YFP = target: T1, hTRPML3-YFP (Homo sapiens, UniProt Q8TDD5); experiment: Fluo-4 Ca2+ influx assay, HEK293 stably expressing hTRPML3-YFP, activated with ML-SA1; assay type: cell-based; conditions: for inhibitory effect on TRPML3: 12.5 µM compound, 5 µM ML-SA1, Fig. 1f; for IC50: Fluo-4, 5 µM ML-SA1, Table S1, read-out: TRPML3 IC50
T1 construct: expressed in transfected cells
T1 sequence (Q8TDD5 whole entry): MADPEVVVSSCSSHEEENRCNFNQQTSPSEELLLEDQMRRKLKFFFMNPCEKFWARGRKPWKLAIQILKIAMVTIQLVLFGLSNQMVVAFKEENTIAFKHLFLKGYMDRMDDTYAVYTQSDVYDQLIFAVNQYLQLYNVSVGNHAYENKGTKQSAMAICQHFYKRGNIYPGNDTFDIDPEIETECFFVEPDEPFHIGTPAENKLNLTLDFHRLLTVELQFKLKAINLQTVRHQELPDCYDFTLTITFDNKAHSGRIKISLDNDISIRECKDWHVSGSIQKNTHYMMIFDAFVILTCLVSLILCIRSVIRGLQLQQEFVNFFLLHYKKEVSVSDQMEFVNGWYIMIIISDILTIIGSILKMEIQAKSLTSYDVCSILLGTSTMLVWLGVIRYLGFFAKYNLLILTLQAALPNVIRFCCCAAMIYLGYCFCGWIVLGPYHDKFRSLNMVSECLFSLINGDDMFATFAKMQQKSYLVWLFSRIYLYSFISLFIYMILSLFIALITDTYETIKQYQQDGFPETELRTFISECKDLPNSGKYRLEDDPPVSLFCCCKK
Description: To identify inhibitors of TRPML1 and TRPML3, the Spectrum Collection compound library (MS Discoveries; 2000 compounds) and additional 430 bioactive compounds were screened. To this end, fluorometric Ca^2+ influx assays were performed by using the calcium dye Fluo-4/AM (Invitrogen, Thermo Fisher Scientific, Waltham, MA, USA) and a custom-made fluorescence imaging plate reader built into a robotic liquid handling station (Freedom Evo 150, Tecan, Männedorf, Switzerland). All measurements were done in a HEPES buffered solution (HBS), containing 132 mM NaCl, 6 mM KCl, 1 mM MgCl2, 1 mM CaCl2, 5.5 mM D-glucose, 10 mM HEPES, pH 7.4. Screening compounds dissolved in DMSO (10 mM) were prediluted in 150 mM NaCl, 20 mM HEPES, pH 7.4, to a concentration of 200 µM. For primary screens, HEK293 stably expressing plasma membrane-targeted TRPML1 or TRPML3 were trypsinized and resuspended in cell culture medium supplemented with 4 µM Fluo-4/AM. After incubation at 37 °C for 30 min, the cell suspension was briefly centrifuged resuspended in HBS, and dispensed into black pigmented, clear-bottom 384-well microwell plates (Greiner μClear, Frickenhausen, Germany). Plates were placed into the FLIPR and fluorescence signals (excitation 470 nm, emission 515 nm) were recorded with a Zyla 5.5 camera (Andor, Belfast, UK) and the μManager software like previously described. In a first video, compound libraries were successively added to the cells with the Tecan 96-tip multichannel arm to a final concentration of 20 µM to map unspecific effects like autofluorescence or toxicity. In a second step the agonist ML-SA1 was pipetted in each well and fluorescence signals were recorded for 10 min. Analyses were done by calculating fluorescence intensities for each well and background areas with ImageJ (National Institutes of Health, Bethesda, MD, USA). Finally, the background was subtracted and the fluorescence intensities were normalized to initial intensities (F/F0). Concentration response curves were generated by the same procedure but compounds were manually prediluted in 96-well plates containing HBS, now supplemented with 0.1% bovine serum albumin. Here data was fitted to a four-parameter Hill equation to obtain Imin, Imax, IC50), and the Hill coefficient n.

hTRPML1∆NC-YFP [2] = assay type: cell-based, human; conditions: for primary screen result: 20 µM compound, 5 µM ML-SA1, TRPML1 and TRPML3; for TRPML1 versus TRPML3 selectivity: Fluo-4, TRPML1 vs TRPML3, 5 µM ML-SA1; for TRPML1:TRPML2 fold selectivity / TRPML1:TRPML3 fold selectivity: ratio of Fluo-4 IC50 values
Description: as §1

hTRPML2-YFP = target: T2, hTRPML2-YFP (Homo sapiens, UniProt Q8IZK6); experiment: Fluo-4 Ca2+ influx assay, HEK293 stably expressing hTRPML2-YFP, activated with ML-SA1; assay type: cell-based; conditions: TRPML2 IC50, Fluo-4, 5 µM ML-SA1, Table S1
T2 construct: expressed in transfected cells
T2 sequence (Q8IZK6 1-566): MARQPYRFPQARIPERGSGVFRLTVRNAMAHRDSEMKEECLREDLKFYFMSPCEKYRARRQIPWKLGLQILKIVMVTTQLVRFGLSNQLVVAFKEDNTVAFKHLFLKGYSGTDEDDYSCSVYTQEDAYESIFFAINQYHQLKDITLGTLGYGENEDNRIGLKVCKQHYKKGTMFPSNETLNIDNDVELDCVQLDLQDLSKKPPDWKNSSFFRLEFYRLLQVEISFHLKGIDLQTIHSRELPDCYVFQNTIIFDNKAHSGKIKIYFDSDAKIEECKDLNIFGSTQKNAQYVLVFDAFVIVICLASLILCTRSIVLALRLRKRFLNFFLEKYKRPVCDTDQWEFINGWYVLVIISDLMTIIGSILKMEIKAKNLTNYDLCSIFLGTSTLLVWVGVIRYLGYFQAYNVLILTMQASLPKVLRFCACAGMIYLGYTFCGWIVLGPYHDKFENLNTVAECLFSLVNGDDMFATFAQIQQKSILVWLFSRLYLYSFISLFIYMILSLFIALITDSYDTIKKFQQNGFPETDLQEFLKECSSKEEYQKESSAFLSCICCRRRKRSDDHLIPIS

[3] = read-out: TRPML1 IC50, concentration-response retest of screening hits and steroids, Fluo-4, 5 µM ML-SA1, Fig. 1b-e, S1
[4] = read-out: TRPML1 IC50, Fluo-4, 5 µM ML-SA1, Fig. 2a/4, Table S1

| SMILES | inhibitory effect on TRPML1 (hTRPML1∆NC-YFP [1]) | inhibitory effect on TRPML3 (hTRPML3-YFP) | IC50 (hTRPML1∆NC-YFP [1]; [4]) | TRPML1:TRPML2 fold selectivity (hTRPML1∆NC-YFP [2]) | TRPML1:TRPML3 fold selectivity (hTRPML1∆NC-YFP [2]) | IC50 (hTRPML3-YFP) | IC50 (hTRPML2-YFP) | also measured |
| --- | --- | --- | --- | --- | --- | --- | --- | --- |
| C#CC1(O)CC[C@H]2[C@@H]3CCC4=CC(=O)CC[C@@H]4[C@H]3CC[C@@]21CC (mixture of isomers) [norgestrel, reference compound] | no effect | no effect |  |  |  |  |  |  |
| CC(=O)O[C@@H]1C=C[C@]2(C)C(C[C@@H](OC(C)=O)[C@]3(C)C4=CC(=O)O[C@H](c5ccoc5)[C@@]4(C)CCC23)C1(C)C (stereo partly drawn) [DGA, deoxygedunol acetate, reference compound] |  |  |  |  |  |  |  | primary screen result (hTRPML1∆NC-YFP [2]): TRPML1 selective hit |
| C=C1C[C@H]2[C@@H]3C=C(C)C4=CC(=O)CC[C@]4(C)[C@H]3CC[C@]2(C)[C@@]1(OC(C)=O)C(C)=O [MGA, melengestrol acetate, reference compound] |  |  |  |  |  |  |  | IC50 (hTRPML1∆NC-YFP [1]; [3]): 19 µM and 18.6 µM; primary screen result (hTRPML1∆NC-YFP [2]): TRPML1 selective hit; TRPML1 versus TRPML3 selectivity (hTRPML1∆NC-YFP [2]): highly TRPML1-selective |
| C[C@]12CC[C@@H]3c4ccc(OC(F)F)cc4CC[C@H]3[C@@H]1CC[C@@H]2O [PRU-4] |  |  | 0.5 µM | 10.25 fold | 9.37 fold | 4.78 µM | 5.23 µM |  |
| CCOc1ccc2c(c1)CC[C@@H]1[C@@H]2CC[C@]2(C)[C@@H](O)CC[C@@H]12 [PRU-5] |  |  | 0.8 µM | 4.45 fold | 19.58 fold | 14.9 µM | 3.38 µM |  |
| CC(C)Oc1ccc2c(c1)CC[C@@H]1[C@@H]2CC[C@]2(C)[C@@H](O)CC[C@@H]12 [PRU-6] |  |  | 0.41 µM | 8.71 fold | 19.2 fold | 7.87 µM | 3.57 µM |  |
| C=CCOc1ccc2c(c1)CC[C@@H]1[C@@H]2CC[C@]2(C)[C@@H](O)CC[C@@H]12 [PRU-7] |  |  | 0.73 µM | 3.62 fold | 20.82 fold | 15.2 µM | 2.64 µM |  |
| C[C@]12CC[C@@H]3c4ccc(OS(=O)(=O)C(F)(F)F)cc4CC[C@H]3[C@@H]1CC[C@@H]2O [PRU-9] |  |  | 0.17 µM | 14.88 fold | 35.06 fold | 5.96 µM | 2.53 µM | TRPML isoform selectivity profile (hTRPML1∆NC-YFP [2]; TRPML1, 2, 3 and TPC2, Fluo-4): further improved selectivity profile compared to EDME |
| C[C@]12CC[C@@H]3c4ccc(-c5ccccc5)cc4CC[C@H]3[C@@H]1CC[C@@H]2O [PRU-11] |  |  | 0.44 µM | 5.45 fold | 72.98 fold | 32.1 µM | 2.4 µM |  |
| O=C(O)CCCCCCCCCCCC[C@@H]1C=CCC1 [chaulmoorgic acid, reference compound] |  |  |  |  |  |  |  | primary screen result (hTRPML1∆NC-YFP [2]): TRPML1 selective hit |
| CC(C)CCC[C@@H](C)[C@H]1CC[C@H]2[C@@H]3CC=C4C[C@@H](O)CC[C@]4(C)[C@H]3CC[C@]12C [cholesterol, reference compound] | no effect | no effect |  |  |  |  |  |  |
| C[C@]12CCC3c4ccc(OS(=O)(=O)[O-])cc4CCC3C1CC[C@H]2O.[Na+] (stereo partly drawn) [estradiol-3-sulfate sodium salt, reference compound] |  |  |  |  |  |  |  | TRPML1-inhibitory activity, SAR summary (hTRPML1∆NC-YFP [1]): eliminated TRPML1-inhibitory activity |
| COc1ccc2c(c1)CC[C@@H]1[C@@H]2CC[C@]2(C)C(=O)CC[C@@H]12 [estrone 3-methyl ether, reference compound] | no effect | no effect |  |  |  |  |  |  |
| C[C@]12CC[C@@H]3c4ccc(O)cc4CC[C@H]3[C@@H]1CCC2=O [estrone, reference compound] | no effect | no effect |  |  |  |  |  |  |
| C#C[C@]1(O)CC[C@H]2[C@@H]3CCc4cc(O)ccc4[C@H]3CC[C@@]21C [ethinylestradiol, reference compound] |  |  |  |  |  |  |  | TRPML1-inhibitory activity, SAR summary (hTRPML1∆NC-YFP [1]): only weakly active; TRPML1 versus TRPML3 selectivity (hTRPML1∆NC-YFP [2]): stronger inhibitory effects on TRPML1 than on TRPML3 |
| C[C@]12CC[C@@H]3c4ccc(O)cc4C[C@@H](CCCCCCCCC[S+]([O-])CCCC(F)(F)C(F)(F)F)[C@H]3[C@@H]1CC[C@@H]2O (stereo partly drawn) [fulvestrant, reference compound] | no effect | no effect |  |  |  |  |  |  |
| C[C@]12CCC(=O)C=C1CC[C@@H]1[C@@H]2[C@@H](O)C[C@@]2(C)[C@H]1CC[C@]2(O)C(=O)CO [hydrocortisone, reference compound] | no effect | no effect |  |  |  |  |  |  |
| C#C[C@]1(O)CC[C@H]2[C@@H]3CCc4cc(OC)ccc4[C@H]3CC[C@@]21C [mestranol, reference compound] | strongest effect |  |  |  |  |  |  | TRPML1-inhibitory activity, SAR summary (hTRPML1∆NC-YFP [1]): considerable activity; TRPML1 versus TRPML3 selectivity (hTRPML1∆NC-YFP [2]): stronger inhibitory effects on TRPML1 than on TRPML3 |
| CC(=O)[C@H]1CC[C@H]2[C@@H]3CCC4=CC(=O)CC[C@]4(C)[C@H]3CC[C@]12C [progesterone, reference compound] | much weaker inhibitory effects |  |  |  |  |  |  | IC50 (hTRPML1∆NC-YFP [1]; [3]): 12 µM |
| C[C@]12CC[C@H]3[C@@H](CCC4=CC(=O)CC[C@@]43C)[C@@H]1CC[C@@H]2O [testosterone, reference compound] | much weaker inhibitory effects |  |  |  |  |  |  |  |
